In PubChem BioAssay AID2740 (NMMLSC, 2010):
The source made the active and inactive calls.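 The calls were made as follows: active = compounds whose fitted half-maximal concentration for changing the GFP signal is at or below a set limit; inactive = the rest.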

Assay: TOR pathway RPL19A-GFP modulators, concentration series – cell-based, S. cerevisiae, flow cytometry, MLPCN hits, dose response (AID 2740);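 also: background is signal of the same compound in parental non-GFP s288c yeast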
Details: S. cerevisiae RPL19A-GFP strain, flow cytometry fluorescence, 3 h; at 33 µM (top of the series)

Structure (SMILES) | GFP fluorescence, lower = active (kMESF (background-subtracted))
CCCCNc1c2c3c(cccc3n(C)c1=O)C(=O)c1ccccc1-2 | 39.9 (inactive)
CCC1(c2ccccc2)ON(c2c(Br)cccc2Br)C1=O (centres undefined) | 34.8 (inactive)
CCC(C)/C(C)=N/NC(=O)c1ccc(COc2ccc(Cl)c(C)c2)cc1 (centres undefined) | 44.9 (inactive)
O=C(c1ccc(C(=O)N2CCCc3ccccc32)s1)N1CCCc2ccccc21 | 38.1 (inactive)
Cc1ccc(C(=O)O/N=C(\N)Cc2cccs2)c(Cl)c1 | 38.5 (inactive)
Cc1c(C)c2ccc(Oc3ccc([N+](=O)[O-])cc3C(F)(F)F)c(C)c2oc1=O | 39.5 (inactive)
Nc1ccc2ccc3cccc[n+]3c2c1 | 45.9 (inactive)
O=C(O)C1Sc2[nH]c(=O)sc2C2c3cc(Br)ccc3OC(=O)C12 (centres undefined) | 37.8 (inactive)
CCC(=O)Nc1ccc(NC(=O)c2cc3ccccc3o2)cc1 | 39.4 (inactive)
Cc1ccccc1N1C(=O)C(Cl)=C(N2CCN(c3ccccc3)CC2)C1=O | 39.3 (inactive)
O=C1C2C3C=CC(CO)(O3)C2C(=O)N1c1ccccc1-c1ccccc1 (centres undefined) | 20.9 (inactive)
O=C(NC(=S)NNC(=O)c1cnccn1)c1ccc(F)cc1 | 31.9 (inactive)
Cc1c(C(=O)Nc2nc(-c3ccccn3)cs2)oc2ccccc12 | 33.3 (inactive)
Cc1ccc(C2=NN(S(C)(=O)=O)C(c3ccc4c(c3)OCO4)C2)cc1 (centres undefined) | 44.8 (inactive)
CC1=CC(=O)C(C(C)C)=C/C1=N/OS(=O)(=O)c1ccccc1 | 23.9 (inactive)
CCOc1ccc(C(C)=O)cc1N1C(=O)C2C3C=CC(O3)C2C1=O (centres undefined) | 42.4 (inactive)
O=C(/C=C/c1ccccc1Cl)c1ccccc(=O)c1O | 5.26 (inactive)

Structure (SMILES) | GFP fluorescence, lower = active (kMESF (background-subtracted))
COc1ccccc1[C@@]1(C)ON(c2ccccc2C(F)(F)F)C1=O | 22.7 (inactive)
O=[N+]([O-])c1cnc(Sc2ccncn2)s1 | 31.1 (inactive)
CN(C)C(=O)Oc1ccnc2cc(Cl)ccc12 | 38.2 (inactive)
CC[C@]1(c2ccccc2C)ON(c2ccccc2C(F)(F)F)C1=O | 40 (inactive)
CCc1sc(C(=O)Nc2nc(-c3ccccn3)cs2)cc1C | 21.1 (inactive)
Cc1cccc(OCCN2CSC(=S)N(C)C2)c1 | 40.5 (inactive)
O=C1C(Cl)=C(Nc2ccccc2O)C(=O)N1CCc1ccccc1 | 42.1 (inactive)
Cc1cc(C)c(OCC(=O)Nc2nc(-c3ccccn3)cs2)c(C)c1 | 39.3 (inactive)
COC(CNC(=O)c1ccc2c3c(onc13)-c1ccccc1C2=O)OC | 14.8 (inactive)
O=C(Oc1cccc2cccnc12)c1ccc(Br)o1 | 44.1 (inactive)
Cc1ccsc1/C=C1\C(=O)NC(=S)N(C)C1=O | 19.6 (inactive)
O=C(COc1ccccc1)NNC(=S)NC(=O)c1ccc(Cl)cc1Cl | 28 (inactive)
COc1ccc(-c2cc(C(F)(F)F)nc(S(C)(=O)=O)n2)cc1 | 44.7 (inactive)
O=C1C(=O)c2ccccc2-c2ccccc21 | 17.7 (inactive)
CCCCC(=O)NC(=S)NNC(=O)CCc1ccccc1 | 37.8 (inactive)
Cc1cc(Br)c2c(c1)/C(=C/C(=O)c1cccs1)C(=O)N2 | 40.3 (inactive)
COc1ccccc1N=Cc1nc(-c2ccccc2)oc1OC(C)=O | 46.8 (inactive)
